{"source": "patent US20220202885A1", "about": "“ONCOLYTIC VIRUS WITH IMPROVED SAFETY AND […]” (BIONOXX INC., priority 2019, published 2022)", "key": {"[1]": {"tested_on": "mouse colorectal cancer cell line (CT-26) allograft", "test": "Tumor volume in mouse colorectal cancer cell line-transplanted mice (Example 13.2)", "format": "in vivo", "conditions": "CT-26 allograft Balb/c mice; WOTS-418 1×10^8 pfu i.p. D0, D3 and 1×10^7 pfu i.t. D14, D21; hydroxyurea 30 mg/kg i.p. once a day"}, "[2]": {"tested_on": "CD8+ T cells secreting IFN-γ", "format": "in vivo, mouse", "conditions": "CT-26 allograft Balb/c mice; same doses and regimens as tumor volume test; co-culture with CT-26 cells"}, "[3]": {"tested_on": "human breast cancer cell line (MDA-MB-231) xenograft", "test": "Tumor volume in human breast cancer cell line-transplanted mice (Example 11)", "format": "in vivo, mouse", "conditions": "MDA-MB-231 xenograft Balb/c nu/nu mice"}}}
{"substance": "hydroxyurea", "values": [{"measurement": "tumor volume on day 25 compared with the control group", "setting": "[1]", "result": "suppressed tumor volume"}, {"measurement": "CD8+ T cells secreting IFN-γ among spleen CD8+ T cells, compared with control mice (ELISPOT)", "setting": "[2]", "result": "abundant"}, {"measurement": "tumor volume on day 31 relative to the initial tumor volume", "setting": "[3]; HU 30 mg/kg i.p. twice a day, day 31", "result": "≥ 5", "unit": "fold"}, {"measurement": "tumor growth (tumor volume measured for 31 days)", "setting": "[3]; WOTS-418 1×10^7 pfu (D0 i.p., D10 i.t.), hydroxyurea 30 mg/kg i.p. twice a day", "result": "tumor growth was not inhibited"}]}
